In ChEMBL document CHEMBL1201862, “PubChem BioAssay data set” (2004):
Calls of active or inactive are those of the source. Rule as the data show it, for most assays here: actives have a measured EC50 and inactives only a lower limit.

Legend:
[1] = target: T1, Short transient receptor potential channel 4 (Mus musculus, UniProt Q9QUQ5); assay: mouse TRPC4 channel inhibitors, dose response, cell-based, HEK293 TRPC4/mu-opioid, Fluo-4 calcium (AID 434942); assay type: functional;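 also: potency of inhibitors blocking the TRPC4 calcium response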
T1 sequence (Q9QUQ5 whole entry): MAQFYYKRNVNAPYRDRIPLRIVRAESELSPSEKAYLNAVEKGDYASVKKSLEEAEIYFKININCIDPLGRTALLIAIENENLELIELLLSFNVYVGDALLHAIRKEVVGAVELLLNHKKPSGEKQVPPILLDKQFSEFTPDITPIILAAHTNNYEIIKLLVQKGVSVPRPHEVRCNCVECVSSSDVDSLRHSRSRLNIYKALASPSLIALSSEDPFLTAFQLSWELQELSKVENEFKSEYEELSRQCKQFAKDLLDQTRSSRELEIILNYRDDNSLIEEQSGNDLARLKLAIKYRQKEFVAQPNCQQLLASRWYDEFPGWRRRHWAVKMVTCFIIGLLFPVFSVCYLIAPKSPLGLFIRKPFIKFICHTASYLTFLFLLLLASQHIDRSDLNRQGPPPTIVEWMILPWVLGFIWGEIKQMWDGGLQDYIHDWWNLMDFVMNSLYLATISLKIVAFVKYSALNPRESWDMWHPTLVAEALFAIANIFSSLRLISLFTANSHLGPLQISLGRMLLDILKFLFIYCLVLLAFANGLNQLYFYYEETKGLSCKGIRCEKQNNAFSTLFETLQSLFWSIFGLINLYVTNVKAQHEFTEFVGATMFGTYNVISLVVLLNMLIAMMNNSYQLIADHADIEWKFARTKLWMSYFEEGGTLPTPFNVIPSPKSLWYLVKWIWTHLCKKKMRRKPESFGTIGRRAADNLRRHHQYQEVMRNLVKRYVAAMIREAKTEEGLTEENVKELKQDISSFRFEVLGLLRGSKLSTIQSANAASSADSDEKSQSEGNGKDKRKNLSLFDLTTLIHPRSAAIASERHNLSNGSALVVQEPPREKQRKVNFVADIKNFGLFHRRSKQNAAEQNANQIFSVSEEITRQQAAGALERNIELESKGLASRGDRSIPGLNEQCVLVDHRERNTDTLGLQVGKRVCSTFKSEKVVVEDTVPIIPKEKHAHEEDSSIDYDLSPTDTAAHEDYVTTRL

[2] = Luminescence Cell-Based Dose Response HTS to Identify Activators of Luciferase Translation or Activity in H4 […] Cells. [Related pubchem assays: 1829 (Project Summary), 1814 (Primary HTS)]; assay type: functional
H4 = assay: Luminescence Cell-Based Dose Response HTS to Identify Activators of 5'UTR Stem-Loop Driven Prion Protein mRNA Translation in H4 Neuroglioblastoma Cells. [Related pubchem assays: 1829 (Project Summary), 1814 (Primary HTS)]; assay type: functional; conditions: Homo sapiens
[3] = Luminescence Cell-Based Dose Confirmation HTS to Identify Activators of 5'UTR Stem-Loop Driven Alpha-Synuclein mRNA Translation in H4 Neuroglioblastoma Cells. [Related pubchem assays: 1829 (Project Summary), 1814 (Primary HTS)]; assay type: functional
[4] = NIH-3T3 fibroblast cytotoxicity, dose response, cytotoxicity control, cell-based, fluorescence, Alamar Blue, secondary assay (AID 2327); assay type: functional;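 also: NIH-3T3 mouse fibroblasts cultured with fluconazole at 8 µg/mL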
[5] = C. albicans growth with fluconazole, confirmation, fluorescence, retest (AID 2467); assay type: functional, cell-based
[6] = target: Luciferin 4-monooxygenase (Photinus pyralis, UniProt P08659); assay: firefly luciferase enzyme inhibitors, dose response, biochemical, luminescence (AID 1891)
[7] = Luminescence Cell-Based Dose Confirmation HTS to Identify Inhibitors of Platelet Dense Granule Release. [Related pubchem assays: 1663 (Primary HTS), 1678 (Summary of Project)]; assay type: functional
[8] = Luminescence Cell-Based Dose Retest to Confirm Inhibitors of Cancer Stem Cells. [Related pubchem assays (depositor defined):AID2717, AID2721]; assay type: functional; conditions: Homo sapiens
INS1 = assay: beta cell apoptosis inhibitors, cytokine rescue, dose response, luminescence, retest (AID 449756); assay type: functional, cell-based; conditions: Rattus norvegicus;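 also: cell death triggered by IL-1 beta plus TNF-alpha plus IFN-gamma mixture; protective hits raise ATP signal compared with cytokine alone wells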
[9] = inhibitors of HIV Env-driven cell fusion, dose response, cherry-pick (AID 652057); assay type: functional, cell-based
Paired box protein Pax-8 = Paired box protein Pax-8 (Homo sapiens, UniProt Q06710); assay: inhibitors of PAX8-driven TPO luciferase reporter, dose response, RMG-I cells, cherry-pick (AID 687027); assay type: functional, cell-based;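 also: luciferase reporter driven by Pax8 target thyroperoxidase promoter measured by SteadyGlo luminescence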
[10] = P. falciparum Dd2 growth inhibitors, dose response, SYBR Green, cherry-picked samples (AID 1159567); assay type: functional, cell-based

Chain of Luciferin 4-monooxygenase (P08659 whole entry): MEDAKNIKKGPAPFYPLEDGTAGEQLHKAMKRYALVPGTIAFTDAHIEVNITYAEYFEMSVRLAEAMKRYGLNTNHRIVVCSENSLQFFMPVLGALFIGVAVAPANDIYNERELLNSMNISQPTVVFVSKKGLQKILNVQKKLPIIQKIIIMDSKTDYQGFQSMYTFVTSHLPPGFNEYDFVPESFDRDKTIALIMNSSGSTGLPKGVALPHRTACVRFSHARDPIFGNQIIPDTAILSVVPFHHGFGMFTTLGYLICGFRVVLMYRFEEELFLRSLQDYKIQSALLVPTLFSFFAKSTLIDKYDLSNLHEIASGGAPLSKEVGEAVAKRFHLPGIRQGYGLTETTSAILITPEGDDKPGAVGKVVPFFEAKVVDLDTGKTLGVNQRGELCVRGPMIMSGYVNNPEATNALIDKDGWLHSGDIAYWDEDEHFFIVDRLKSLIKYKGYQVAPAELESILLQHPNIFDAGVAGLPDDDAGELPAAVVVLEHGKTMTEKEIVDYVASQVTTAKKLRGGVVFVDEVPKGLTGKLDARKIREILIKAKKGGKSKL
Chain of Paired box protein Pax-8 (Q06710 whole entry): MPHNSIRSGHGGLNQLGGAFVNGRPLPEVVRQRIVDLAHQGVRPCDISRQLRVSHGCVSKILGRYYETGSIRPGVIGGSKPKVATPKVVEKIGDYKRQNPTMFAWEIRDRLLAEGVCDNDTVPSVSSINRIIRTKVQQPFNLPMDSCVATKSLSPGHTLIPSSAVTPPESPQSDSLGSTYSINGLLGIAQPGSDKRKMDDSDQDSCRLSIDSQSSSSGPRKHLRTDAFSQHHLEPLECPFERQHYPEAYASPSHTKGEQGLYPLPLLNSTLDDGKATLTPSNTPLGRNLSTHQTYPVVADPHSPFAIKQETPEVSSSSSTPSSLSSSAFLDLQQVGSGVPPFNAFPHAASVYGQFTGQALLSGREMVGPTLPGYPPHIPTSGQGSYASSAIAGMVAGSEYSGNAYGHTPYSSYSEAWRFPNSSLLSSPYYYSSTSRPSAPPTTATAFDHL

Cc1c(CCOC(=O)c2cccc([N+](=O)[O-])c2)sc[n+]1CC(=O)c1ccccc1
EC50 [1]: 6.68 µM (active)

Cc1cc(C)c2nc(O)c(CN(Cc3cccnc3)C(S)=NCCCN(C)C)cc2c1
EC50 [1]: 2.37 µM (active)

COC(=O)C1(Cc2cc(-c3ccccc3)no2)CCN(C(=O)OC(C)(C)C)CC1
EC50 [2]: 49.6 µM (active) | EC50 (H4): 55.7 µM (active) | EC50 [3]: 9.17 µM (active)

CN1C(=O)/C(=C/c2cn(CC(=O)N3CCCCC3)c3ccccc23)NC1=S
EC50 [4]: > 150 µM (inactive) | EC50 [5]: > 38 µM (not active)

C=CCNc1ncnc2c1[nH]c1ccc(Cl)cc12
EC50 [2]: 43 µM (active) | EC50 [3]: 89.5 µM (active)

CCOc1cccc(-c2cc(-c3nnc(S)n3CC)c3ccccc3n2)c1
EC50 [4]: > 160 µM (inactive) | EC50 [5]: 4.13 µM (active)

COC(=O)Cc1c(C)c2ccc(OCC(=O)N3CCC(C)CC3)c(C)c2oc1=O
EC50 [6]: > 112 µM (not active) | EC50 [7]: 22.1 µM (active)

Cc1nn(-c2nc3ccccc3n2Cc2ccccc2)c2c1C(=O)CC(C)(C)C2
EC50 [1]: 2.11 µM (active)

Clc1ccc2c(c1)-c1nnc(Br)n1-c1ccccc1S2
EC50 [1]: 5.96 µM (active)

CC1=NN(C(C#N)c2cccc([N+](=O)[O-])c2)C(C)(C)C1 (stereo not drawn)
EC50 [6]: > 112 µM (not active) | EC50 [7]: > 112 µM (not active)

CCc1nnc(NC(=O)CSc2nc3c(cc2C#N)CCC3)s1
EC50 [2]: 0.131 µM (active) | EC50 (H4): > 120 µM (not active)

CC(=O)N1CCC(=NNc2nc3ccccc3s2)CC1
EC50 [4]: > 160 µM (inactive) | EC50 [5]: > 38 µM (not active)

O=C(CNC(=O)c1cn2ccccc2n1)Nc1ccc(F)c(F)c1
EC50 [2]: 45.5 µM (active) | EC50 (H4): > 120 µM (not active) | EC50 [3]: 0.453 µM (active)

O=C(Nc1ccc2c(c1)OCCO2)NC12CC3CC(CC(C3)C1)C2
EC50 [2]: 0.516 µM (active) | EC50 (H4): > 120 µM (not active) | EC50 [3]: 5.22 µM (active)

O=C(NCc1ccccc1)/C(NC(=O)c1ccccc1)=C(/Sc1ccccn1)c1ccccc1
EC50 [6]: > 112 µM (not active) | EC50 [7]: > 112 µM (not active)

COc1cc(OC)cc(C(=O)Nc2ccc3c(c2)OCCO3)c1
EC50 [6]: 3.95 µM (active) | EC50 [7]: 6.36 µM (active)

CN(C)C(=O)CN1C(=O)C2CC=C(Cl)CC2C1=O (stereo not drawn)
EC50 [6]: > 112 µM (not active) | EC50 [7]: > 112 µM (not active)

Cn1c(S)nnc1-c1cnn(-c2ccccc2)c1N
EC50 [6]: > 112 µM (not active) | EC50 [7]: 4.85 µM (active)

COC(=O)c1c(-c2cccs2)csc1NC(=O)c1cccnc1
EC50 [4]: > 160 µM (inactive) | EC50 [5]: 2.49 µM (active)

COc1ccc(C(=O)NC2CCSc3ccccc32)cc1 (stereo not drawn)
EC50 [6]: > 112 µM (not active) | EC50 [7]: > 112 µM (not active)

CCCCCC(=O)Nc1nc(C)c(-c2csc(Nc3cc(OC)ccc3OC)n2)s1
AC50 [8]: 1.29 µM (active)

COc1cc(-c2nc(-c3ccc(NC(=O)c4ccc(Br)o4)cc3)no2)cc(OC)c1OC
AC50 [8]: 0.725 µM (active)

CCOC(=O)C1(Cc2ccccc2)CCN(Cc2ccc(C)s2)CC1
EC50 [1]: 0.133 µM (active)

Cc1ccc(C(=O)Cn2ncsc2=N)cc1
EC50 [2]: 16.8 µM (active) | EC50 [3]: 13.5 µM (active)

Cc1ccc(C2NNC(=O)C2NC(=O)c2ccccc2)cc1 (stereo not drawn)
EC50 [2]: 9.08 µM (active) | EC50 (H4): 48.6 µM (active) | EC50 [3]: 11.3 µM (active)

N#Cc1c(Cl)nsc1NC(=O)c1ccccc1
EC50 [4]: 22.2 µM (active) | EC50 [5]: 0.626 µM (active) | AC50 (INS1): 3.29 µM (active)

COc1cc(C2NCC(c3ccc(Cl)cc3Cl)c3c2[nH]c2ccccc32)cc(OC)c1OC (stereo not drawn)
AC50 [8]: 3.7 µM (active)

Cc1cnc(C(=O)N2CCCC(C(=O)c3ccc(Cl)cc3C)C2)cn1 (stereo not drawn)
EC50 [6]: > 112 µM (not active) | EC50 [7]: > 112 µM (not active)

CCc1cc2c(=O)c(-c3nc4ccccc4n3C)c(COCC(=O)O)oc2cc1O
EC50 [2]: > 120 µM (not active) | EC50 (H4): > 120 µM (not active) | EC50 [3]: > 120 µM (not active)

O=C(/C=C/c1ccc(S(=O)(=O)NCc2ccco2)cc1)NCc1ccccc1Cl
EC50 [2]: > 120 µM (not active) | EC50 (H4): 16.4 µM (active) | EC50 [3]: > 120 µM (not active)

O=C1C2CCN(CC2)C1Cc1ccc(OCc2ccccc2)cc1 (stereo not drawn)
EC50 [4]: 24 µM (inconclusive) | EC50 [5]: 2.41 µM (active)

CC(=O)Oc1ccc(-c2cc3c(OC(C)=O)cc(OC(C)=O)cc3oc2=O)cc1
EC50 [6]: > 112 µM (not active) | EC50 [7]: 13.7 µM (active)

O=C(COc1ccc2c(c1)CCC2)NCc1cccc(Cl)c1
EC50 [4]: > 160 µM (inconclusive) | EC50 [5]: > 38 µM (not active)

CC1(c2ccccc2)CC(C)(C)N(C(=O)C2CCCO2)c2ccccc21 (stereo not drawn)
EC50 [1]: 3.76 µM (active)

CC(=O)OCCCN1C(=O)c2cccc3cc(Br)cc(c23)C1=O
EC50 [1]: 0.211 µM (active)

CN1CCN(c2ccc(NC(=O)c3ccc(Cl)cc3)cn2)CC1
AC50 [8]: 19.8 µM (active)

CC(C)N=C(S)N1CCN(C/C=C/c2ccccc2)CC1
EC50 [1]: 4.73 µM (active)

COc1ccc(C(CNC(=O)c2oc3ccc(F)cc3c2C)N2CCCCC2)cc1 (stereo not drawn)
EC50 [1]: 1.88 µM (active)

CSc1nc2nccc(/C=C\c3ccccc3)n2n1
EC50 [2]: > 120 µM (not active) | EC50 (H4): > 120 µM (not active) | EC50 [3]: > 120 µM (not active)

Cc1c(C(=O)Nc2ccccc2)sc2nc(-c3ccccc3)cn12
EC50 [2]: 6.59 µM (active) | EC50 (H4): 44.2 µM (active) | EC50 [3]: 4.41 µM (active)

Cc1cc(C)n2nc(Nc3ccccc3)cc2n1
EC50 [2]: 15.8 µM (active) | EC50 [3]: 6.86 µM (active)

NC(=O)CC(NC(=O)Cc1cccc2ccccc12)c1ccc(N2CCc3ccccc3C2)c([N+](=O)[O-])c1 (stereo not drawn)
AC50 [8]: 12.2 µM (active)

CCOC(=O)CSc1nc2c(sc(=S)n2-c2ccccc2OC)c(=O)n1-c1ccccc1OC
EC50 [1]: 2.37 µM (active)

CSc1ncccc1C(=O)OCC(=O)Nc1ccc(C)c(S(=O)(=O)N2CCOCC2)c1
AC50 [9]: 53.2 µM (active)

Oc1ccc(C[C@H]2CNC(=S)N2CC2CCCN2C[C@H](Cc2ccc(O)cc2)N2C[C@H](Cc3ccc(O)cc3)N(CC3CCCCCC3)C2=S)cc1 (stereo partly drawn)
AC50 (Paired box protein Pax-8): 5.35 µM (active)

Oc1ccc(Cc2ccccc2)c2cccnc12
AC50 (Paired box protein Pax-8): 4.48 µM (active)

Cc1ccc(C(=O)N/N=C\c2ccc(-c3ccc(Cl)c(Cl)c3)o2)cn1
AC50 [8]: 3.71 µM (active)

C[C@@H]1CCCCO[C@H](CN(C)S(=O)(=O)c2ccc(Cl)cc2)[C@H](C)CN([C@@H](C)CO)C(=O)c2cc(NS(=O)(=O)c3ccc(F)cc3)ccc2O1
AC50 (Paired box protein Pax-8): 4.33 µM (active)

C[C@H]1CCCCO[C@@H](CN(C)C(=O)c2ccccc2)[C@@H](C)CN([C@@H](C)CO)C(=O)c2cc(NC(=O)Nc3ccc(C(F)(F)F)cc3)ccc2O1
AC50 (Paired box protein Pax-8): 3.76 µM (active)

COc1ccccc1-c1ccc2c(c1)O[C@H](CN(C)Cc1ccc3c(c1)OCO3)[C@H](C)CN([C@@H](C)CO)S2(=O)=O
AC50 (Paired box protein Pax-8): 13.5 µM (active)

O=C(N/N=C/c1cc(Cl)ccc1O)C(=O)Nc1ccccc1OC(F)(F)C(F)F
AC50 [8]: 2.35 µM (active) | AC50 (INS1): 2.7 µM (active)

O=[N+]([O-])c1ccccc1N/N=C1\CCc2ccccc21
EC50 [2]: 0.268 µM (active) | EC50 (H4): 2.24 µM (active)

O=C(C1CCCCC1)N1CC(=O)N2[C@H](CO)[C@@H](c3ccc(C#CCc4ccccc4)cc3)[C@@H]2C1
AC50 [10]: 5.61 µM (active)

COc1cccc(CN2CC3(CN(Cc4ccccn4)C3)c3c([nH]c4cc(OC)ccc34)[C@@H]2CO)c1
AC50 [10]: 6.62 µM (active)
